Reference: US6841720B1, “Inducible promoters” (Biogemma UK LTD, priority 1998, dated 2005)
Like-named read-outs stand apart in the source and are kept apart here.

Tests used:
[1] = test system: extracellular aPR-5 proteins; conditions: leaf discs, cited from earlier work
[2] = test system: AoPRT-L promoter-GUS fusion; assay: AoPRT-L promoter-GUS expression in transgenic tobacco (fluorimetric GUS assay); format: in vivo, Nicotiana tabacum (cv Samsun); conditions: for Time-dependent induction of AoPRT-L promoter-GUS fusion: treatment with 1 mM, time course; for AoPRT-L-promoter-GUS expression after infiltration of pro-oxidant: infiltrated into leaf panels, over the concentration range tested; for Induction of AoPRT-L promoter-GUS by wound signals: transgenic tobacco, summary statement; for Induction of AoPRT-L promoter-GUS fusion: root-fed 3 days, leaf cores
Method: The AoPRT-L promoter construct (p22-GUS(INT) Bin 19) was transformed into Nicotiana tabacum (cv Samsun) using standard Agrobacterium tumefaciens-mediated transformation techniques (Draper et al., (1988): Plant Genetic Transformation and Gene Expression—A Laboratory Manual. Blackwell Scientific Publications, Oxford, UK). The expression of the GUS gene driven by the AoPRT-L promoter was analysed using assays described previously (Draper et al., (1988) supra).
Plants were sprayed once, allowed to dry and then sprayed again on the same day (day 0). After 3 or 6 days leaf cores were taken and GUS activity was measured using a standard fluorimetric assay. […] Leaf cores from tobacco harbouring the AoPRT-L promoter fusion with GUS were floated for 3 or 6 days on water containing increasing concentrations of BTH after which time GUS activity in the leaf discs was measured fluorometrically.
Wounding of tobacco leaves (using the hammer method) or infection of tobacco with Pseudomonas syringae pathovar phaseolicola induces local accumulation of the wound-related phytohormone jasmonic acid (JA) (Kenton et al., submitted; Mur et al., (1997) Trends in Microbiol 5:297-300). Leaf cores from tobacco harbouring the AoPRT-L promoter fusion with GUS were floated for 3 days on water containing increasing concentrations of JA after which time GUS activity in the leaf discs was measured using a standard fluorimetric assay. […]
(§1) In order to test whether oxidative stress is likely to induce high levels of AoPRT-L promoter-driven gene expression, H2O2 was infiltrated into leaf panels of transgenic tobacco harbouring the AoPRT-L-promoter-GUS construct (FIG. 13a). […] However, H2O2 has a limited half-life (around 10 mins—Levine et al., (1994) Cell 79: 583-593) in the apoplast, thus the experiment was repeated using a stable peroxide, t-butyl-hydroperoxide (FIG. 13b).

AoPRT-L-GUS = AoPRT-L-GUS expression in transgenic maize; format: in vivo, Zea mays; conditions: treated with SA or BTH
Excerpt: Maize plants containing AoPRT-L-GUS were produced by biolistic transformation of callus material with pJIT60-P22 GUS int.

AoPRT-Lx3 promoter-GUS = assay: pAoPRT-Lx3-GUS expression in transgenic tobacco; format: in vivo, samsun tobacco; conditions: on SA or BTH induction
Excerpt: In order to construct an AoPRT-L promoter that has higher expression, the region −247 bp to −133 bp was amplified from p22-JIT60 and placed twice in front of a −247 bp AoPRT-L promoter. This AoPRT-Lx3 promoter was constructed as follows: The primers below were used to PCR the 0 bp to −247 bp AoPRT-L promoter from p22-JIT60.
This fragment was cloned as a KpnI, XhoI fragment between the KpnI and SalI sites of the pUC19-derived plasmid forming pAoPRT-Lx2. The −133 bp to −247 bp pAoPRT-L fragment was then cloned as a KpnI, XhoI fragment between the KpnI and SalI sites of pAoPRT-Lx2 forming pAoPRT-Lx3 (FIG. 15c). Next the AoPRT-Lx3 promoter was cloned as an KpnI, PstI fragment into KpnI, PstI-cut p22-JIT60 forming pAoPRT-Lx3-JIT60. The pAoPRT-Lx3 was transferred from pAoPRT-L-x-JIT60 as a KpnI, BamHI fragment into KpnI, BamHI-cut p22-GUS (INT) JIT 60. Finally the resulting pAoPRT-Lx3 -GUS-CaMV poly A chimeric gene was cloned as KpnI, XhoI fragments into KpnI, SalI-cut pBin19 and transformed into samsun tobacco.

[3] = test system: pGB24 (pAoPRT-L-LhG4 / pOP-GUS); assay: pGB24 amplification construct GUS expression in tobacco; format: in vivo; conditions: on SA or BTH induction
Excerpt: (§2) A way of increasing the activity of the AoPRT-L promoter whilst retaining tight regulation of the promoter is to use a system that will amplify expression of the AoPRT-L promoter. An amplification system was built using a transactivator (described in WO98/05789 and Moore et al., (1997) Proc. Natl. Acad. Sci. USA. 95, 379-381). The AoPRT-L promoter is linked to a synthetic transactivator (LhG4) and the target promoter of the transactivator (pOP) to the gene to be expressed. LhG4 consists of a mutated E. coli lacI gene fused to the transcriptional activator domain of the GALA from yeast. pOP910 is a minimal 35S CaMV promoter with two binding sites for the LhG4 protein. Since the transactivator can initiate multiple rounds of transcription from pOP, there is amplification of the initial signal that activated the AoPRT-L promoter.
(§3) The amplification system was constructed by the following steps. The pOP910 promoter was excised from pX-910TAG (K. Palme, Max Planck Institut fur Zuchtungsforchung, Koln, Germany) as a SstI-NcoI fragment and cloned into SstI,NcoI-cut pDH68 (pDH68 consists of a Pea Plastocyanin promoter (Pwee and Gray (1993) Plant J. 3, 437-449) linked to an intron GUS gene (D. Twell, Leicester University) cloned between the SstI and EcoRI sites of the vector pJIT30 (Guerineau et al., (1990) Plant Mol. Biol. 15, 127-136)). […]

[4] = test system: pGB24 (pAoPRT-L-LhG4 / pOP-GUS); assay: pGB24 amplification construct GUS expression in B. napus; format: in vivo, B. napits; conditions: on SA or BTH induction
Excerpt: as §2, §3

PR-1a promoter-GUS = conditions: transgenic tobacco, cited from earlier work; for PR-1a promoter-GUS / endogenous PR-1a expression: direct application
PR gene promoters = conditions: cited from earlier work
tobacco leaf tissue = assay: Visible tissue damage in infiltrated transgenic tobacco leaf panels
Method: as §1

[5] = test system: barley homologue of rice thaumatin-like protein; conditions: 1 ppm; cited from earlier work
barley aPR5 = conditions: in vivo; cited from earlier work
AoPRT-L mRNA = AoPRT-L mRNA accumulation in Asparagus (Northern hybridisation); format: in vivo, Asparagus officinalis; conditions: treated Asparagus
Excerpt: In chopped etiolated A. officinalis seedlings (<=0.5 cm in length) the AoPRT-L transcript was detectable from 3 days after wounding (FIG. 3b).

Which “Induction of extracellular aPR-5 proteins” value ([1]; 10 mM) does the source give for `O=C(O)COc1ccc(Cl)cc1Cl` [2,4 D] here?
The value was “induced”.

Which “Time-dependent induction of AoPRT-L promoter-GUS fusion” value [2] does the source give for `O=C(O)c1ccc(O)cc1` [4hBA, 4-hydroxybenzoic acid] here?
The value was “inactive”.

Which “Level of induction relative to that observed using SA” value ([2]; ABA induction vs SA) does the source give for `CC1=CC(=O)CC(C)(C)[C@@]1(O)/C=C/C(C)=C\C(=O)O` [ABA, abscisic acid] here?
The value was “an order of magnitude lower”.

And the “AoPRT-L-promoter-GUS in leaf discs” value ([2]; high concentration of ABA, leaf discs)?
The value was “slight increase”.

With `CSC(=O)c1cccc2nnsc12` [BTH, benzo(1,2,3)thiadiazole-7-carbothoic acid S-methyl ester] as the compound, how does the “BTH concentration at which BTH-induced GUS activity is observed” value ([2]; leaf cores floated 3 or 6 days) read?
Its value is 1.25 µM.

What about the “Induction of AoPRT-L promoter-driven GUS expression by foliar spray” value ([2]; sprayed twice on day 0, 20 μM BTH vs 1 mM SA, leaf cores after 3 or 6 days) of the same compound?
Its value is “as effective an inducer of GUS expression driven by the AoPRT-L promoter as was SA”.

And the “GUS activity of AoPRT-L-GUS maize on treatment” value (AoPRT-L-GUS)?
The value was “exhibited GUS activity”.

And the “GUS activity of pAoPRT-Lx3-GUS plants vs equivalent AoPRT-L-GUS plants” value (AoPRT-Lx3 promoter-GUS)?
Its value is “significantly greater level of GUS activity”.

And the “GUS activity of pGB24 plants vs equivalent AoPRT-L-GUS plants” value [3]?
Its value is “significantly greater level of GUS activity”.

What about the “GUS activity of pGB24 plants vs equivalent AoPRT-L-GUS plants” value [4] of the same compound?
The value was “significantly greater level of GUS activity”.

And the “PR-1a promoter-GUS / endogenous PR-1a expression” value (PR-1a promoter-GUS)?
Its value is “high levels”.

And the “PR gene expression induced by commercial preparations” value (PR gene promoters; all plants tested including arabidopsis and wheat)?
Its value is “very strong PR gene expression”.

And the “Concentration sufficient to induce PR gene expression” value (PR gene promoters; aqueous solution)?
Its value is 1.2 µM.

What about the “Persistence of gene induction” value (PR gene promoters; spraying) of the same compound?
The value was “at least 10 days”.

And the “Time of maximal gene induction after application” value (PR gene promoters; spraying)?
The value was 2 days.

Which results are given for `OO` [H2O2, hydrogen peroxide]?
AoPRT-L-promoter-GUS expression after infiltration of pro-oxidant [2]: failed to induce; Visible tissue damage after infiltration (tobacco leaf tissue; in vivo): no visible symptoms

Which “Induction of extracellular aPR-5 proteins” value ([1]; 5 mM) does the source give for `[Cl][Hg][Cl]` [HgCl3] here?
The value was “induced”.

For `O=C(O)c1cc(Cl)nc(Cl)c1` [INA, dichloroisonicotinic acid], which “PR-1a promoter-GUS / endogenous PR-1a expression” value (PR-1a promoter-GUS) is on record?
Its value is “high levels”.

And the “Expression of barley homologue of rice thaumatin-like protein” value [5]?
Its value is “induces expression”.

With `CC/C=C\C[C@H]1C(=O)CC[C@@H]1CC(=O)O` [JA, jasmonic acid] as the compound, how does the “Induction of AoPRT-L promoter-driven GUS activity in leaf discs” value ([2]; leaf cores floated 3 days on increasing concentrations, compared with 1 mM SA) read?
Its value is “failed to induce any increase”.

What about the “Induction of AoPRT-L promoter-GUS by wound signals” value [2] of the same compound?
The value was “not induced”.

And the “Expression of barley aPR5” value (barley aPR5)?
Its value is “induces expression”.

Which “Induction of extracellular aPR-5 proteins” value ([1]; 5 mM) does the source give for `[Cl][Mn][Cl]` [MnCl2] here?
The value was “induced”.

Which “Induction of extracellular aPR-5 proteins” value ([1]; 10 mM) does the source give for `O=C(O)Cc1cccc2ccccc12` [NAA] here?
The value was “induced”.

Which “Time after start of treatment at which induction is observable” value ([2]; 1 mM SA) does the source give for `O=C(O)c1ccccc1O` [SA, salicylic acid] here?
Its value is 1 days.

And the “GUS activity of AoPRT-L-GUS plants as fraction of that in pPR-1a-GUS-transformed tobacco” value ([2]; SA induction)?
Its value is “about ⅓”.

And the “Induction of AoPRT-L promoter-GUS fusion” value ([2]; 0.1 mM)?
The value was “little induction”.

What about the “Induction of AoPRT-L promoter-GUS fusion” value ([2]; 1 mM) of the same compound?
Its value is “Substantial induction”.

What about the “Time-dependent induction of AoPRT-L promoter-GUS fusion” value [2] of the same compound?
Its value is “clear time-dependent induction”.

What about the “AoPRT-L mRNA accumulation” value (AoPRT-L mRNA) of the same compound?
Its value is “accumulation was observed”.

What about the “GUS activity of AoPRT-L-GUS maize on treatment” value (AoPRT-L-GUS) of the same compound?
The value was “exhibited GUS activity”.

And the “GUS activity of pAoPRT-Lx3-GUS plants vs equivalent AoPRT-L-GUS plants” value (AoPRT-Lx3 promoter-GUS)?
Its value is “significantly greater level of GUS activity”.

What about the “GUS activity of pGB24 plants vs equivalent AoPRT-L-GUS plants” value [3] of the same compound?
Its value is “significantly greater level of GUS activity”.

What about the “GUS activity of pGB24 plants vs equivalent AoPRT-L-GUS plants” value [4] of the same compound?
The value was “significantly greater level of GUS activity”.

What about the “PR-1a promoter-GUS / endogenous PR-1a expression” value (PR-1a promoter-GUS) of the same compound?
The value was “high levels”.

What about the “SA concentration at which PR-1a-GUS is clearly induced” value (PR-1a promoter-GUS) of the same compound?
The value was 10 to 100 µM.

And the “Induction of expression of PR gene promoters over basal levels” value (PR gene promoters; spraying, injection or root-feeding)?
The value was 50-1000 fold.

For `CC(=O)Oc1ccccc1C(=O)O` [aspirin, acetyl-SA], which “Induction of extracellular aPR-5 proteins” value ([1]; 5 mM) is on record?
Its value is “induced”.

For `O=C(O)CC(O)(CC(=O)O)C(=O)O` [citric acid], which “Induction of extracellular aPR-5 proteins” value ([1]; 5 mM) is on record?
The value was “induced”.

Which “AoPRT-L mRNA accumulation” value (AoPRT-L mRNA) does the source give for `O=P(O)(O)CCCl` [ethephon] here?
Its value is “not induced”.

And the “Induction of extracellular aPR-5 proteins” value ([1]; 10 mM)?
Its value is “induced”.

With `C=C` [ethylene] as the compound, how does the “Induction of AoPRT-L promoter-GUS by wound signals” value [2] read?
The value was “not induced”.

With `O=C(O)C(=O)O` [oxalic acid] as the compound, how does the “Induction of extracellular aPR-5 proteins” value ([1]; 5 mM) read?
The value was “induced”.

With `[Cl-].[Na+]` [salt, NaCl] as the compound, how does the “Induced expression of the AoPRT-L-promoter-GUS construct ('Neither ... induced')” value ([2]; in vivo) read?
Its value is “Neither”.

With `CC(C)(C)OO` [t-butyl-hydroperoxide] as the compound, how does the “AoPRT-L-promoter-GUS expression after infiltration of pro-oxidant” value [2] read?
The value was “no GUS expression was detected”.

And the “Visible tissue damage after infiltration” value (tobacco leaf tissue; leaf panels, higher concentrations for t-butyl-hydroperoxide)?
The value was “severe visible tissue damage”.
